The record followed here is ChEMBL document CHEMBL1138384, “Rational design of a nonpeptide general chemical scaffold for reversible inhibition of PDZ domain interactions” (Bioorg Med Chem Lett, 2007).

Active and inactive are the calls of the source. No cut-off for these calls is given here.

The species entered for series [1] is Homo sapiens. The experiment in a line: Inhibition of MAGI3-PTEN interaction assessed as activation of PKB at 5 uM.
For series [2], the species on record is Homo sapiens. The experiment in a line: Inhibition of MAGI3-PTEN interaction at 10 uM.
Series [3] has as its target Cystic fibrosis transmembrane conductance regulator (Homo sapiens) (UniProt P13569). The experiment in a line: Inhibition of […]-mediated chloride transport in human bronchial epithelial cells by voltage clamp method. Type of series: cell-based. Particulars: Epithelial cell.
A further series deals with HCT-116. The experiment in a line: Effect on HCT116 cells expressing wild-type PTEN assessed as 2-fold increase in PKB activity at 50 uM. Type of series: functional, cell-based. Particulars: Homo sapiens.
The species entered for series [4] is Homo sapiens. Kind of series: Displacement of peptide probe from MAGI3 PDZ2 domain by fluorescent polarization method.
A short description of series [5]: Solubility in water. Type of series: physicochemical.
The next series concerns HEK293. Kind of series: Inhibition of receptor recycling in HEK293 cells assessed as reduction of adrenergic beta-2 receptor expression. Type of series: functional, cell-based. Particulars: Homo sapiens.

Cystic fibrosis transmembrane conductance regulator (Homo sapiens), sequence (P13569 whole entry, looked up): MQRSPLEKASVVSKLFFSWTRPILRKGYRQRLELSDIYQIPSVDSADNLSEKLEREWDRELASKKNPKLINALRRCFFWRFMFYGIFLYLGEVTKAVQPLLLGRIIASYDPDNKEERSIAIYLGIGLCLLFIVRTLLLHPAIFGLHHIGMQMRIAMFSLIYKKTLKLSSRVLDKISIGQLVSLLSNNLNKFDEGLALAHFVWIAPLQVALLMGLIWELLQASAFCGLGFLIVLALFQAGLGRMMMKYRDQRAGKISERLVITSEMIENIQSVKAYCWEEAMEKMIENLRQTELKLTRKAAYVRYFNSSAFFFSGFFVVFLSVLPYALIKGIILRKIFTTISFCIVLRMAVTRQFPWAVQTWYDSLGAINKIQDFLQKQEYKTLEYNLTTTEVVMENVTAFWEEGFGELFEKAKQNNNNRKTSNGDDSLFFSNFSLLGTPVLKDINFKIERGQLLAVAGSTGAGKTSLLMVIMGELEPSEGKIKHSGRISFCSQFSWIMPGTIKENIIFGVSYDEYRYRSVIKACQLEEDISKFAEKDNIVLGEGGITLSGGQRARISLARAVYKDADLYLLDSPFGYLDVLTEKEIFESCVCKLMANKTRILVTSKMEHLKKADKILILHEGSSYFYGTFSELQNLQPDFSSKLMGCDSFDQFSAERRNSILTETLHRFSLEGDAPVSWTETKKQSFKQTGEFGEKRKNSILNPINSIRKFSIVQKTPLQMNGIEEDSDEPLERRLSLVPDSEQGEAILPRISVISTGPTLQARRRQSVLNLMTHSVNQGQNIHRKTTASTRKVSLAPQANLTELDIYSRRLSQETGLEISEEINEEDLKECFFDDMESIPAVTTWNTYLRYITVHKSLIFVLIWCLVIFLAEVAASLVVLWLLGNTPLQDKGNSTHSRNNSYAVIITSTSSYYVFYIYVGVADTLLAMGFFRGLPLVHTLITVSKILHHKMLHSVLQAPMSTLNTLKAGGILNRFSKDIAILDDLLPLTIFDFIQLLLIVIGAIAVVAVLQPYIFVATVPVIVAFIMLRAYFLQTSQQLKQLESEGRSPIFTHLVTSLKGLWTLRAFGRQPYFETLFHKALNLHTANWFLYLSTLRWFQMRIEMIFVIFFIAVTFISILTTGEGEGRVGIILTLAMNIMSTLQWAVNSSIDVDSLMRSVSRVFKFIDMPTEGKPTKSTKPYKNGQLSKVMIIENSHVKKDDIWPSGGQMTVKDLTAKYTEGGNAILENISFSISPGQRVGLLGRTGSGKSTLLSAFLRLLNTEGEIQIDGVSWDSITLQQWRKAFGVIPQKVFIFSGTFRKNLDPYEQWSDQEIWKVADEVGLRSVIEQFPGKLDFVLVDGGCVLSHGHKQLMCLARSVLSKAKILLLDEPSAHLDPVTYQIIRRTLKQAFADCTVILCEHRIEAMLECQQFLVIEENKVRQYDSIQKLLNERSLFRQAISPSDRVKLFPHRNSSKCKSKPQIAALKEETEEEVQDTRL

As usually defined, the inhibition is how much of the control response was suppressed. A lower inhibition goes with a response near the control. Turning to `CCCCCc1c(CO)c2cc(C)c(C(=O)O)cc2n1CCc1ccccc1`, in the series filed under Homo sapiens [1], the outcome was Active. Moreover, in the series listed under Homo sapiens [2], the inhibition was determined as 50%.
The term solubility denotes the dissolved amount per volume that the medium holds. As to `CCCCC(O)c1cc2cc(C)c(C(=O)[O-])cc2n1CCc1ccccc1.[Na+]` (configuration not stated), the Activity entry (in series [3]; with HEK293) was “Dose-dependent effect” in each case. For the same molecule, the outcome in the series with HCT-116 and in the series listed under Homo sapiens [4] was Active. In addition, the solubility in series [5] was more than 30 mM.
